Measurements reported in publication PMC8760230, “Translational Development of a Zr-89-Labeled Inhibitor of Prostate-specific Membrane Antigen for PET Imaging in Prostate Cancer” (Molecular Imaging and Biology, 2021).
“Also recorded” adds a separate entry of the source. Where two headings read alike, the source gives them in different places.

Key:
[1] = target: T1, PSMA (Homo sapiens, UniProt Q04609); test: Equilibrium dissociation constant Kd / Bmax, saturation binding on PSMA-positive LNCaP cells; details: for Kd: 3 h incubation, 0.25-75 nM, nonspecific binding with 2-PMPA; for Bmax (maximum achievable concentration on 10^6 tumor cells): Scatchard plots
T1 construct: host or cells: LNCaP cells
Method: The equilibrium dissociation constant describing the interaction of the radiolabeled ligands with the PSMA binding sites was determined in PSMA-positive LNCaP cell lines (Cell Line Service, Eppelheim, Germany). LNCaP cells were seeded at a density of 10^6 cells/well on a 6-well plate (Corning, ME, USA) and incubated under 5% CO2 at 37 °C for 48 h with medium (minimum essential medium Eagle supplemented with 2 mM L-glutamine, 0.1 mM non-essential amino acids (NEAA), 1.0 mM sodium pyruvate, 10% fetal bovine serum, 100 U/ml penicillin, and 100 µg/ml streptomycin) (Lonza, Verviers, Belgium) in a humidified incubator (Thermo Heracell 150 CO2-Incubator, MA, USA). To determine the nonspecific binding, the medium was removed from selected wells, and 1 ml of a solution of 0.1 mM of 2-(phosphonomethyl)-pentanedioic acid (2-PMPA) in fresh medium was added. […] The plates were then incubated under 5% CO2, at 37 °C for 1 h. After that, the medium was removed and the cells incubated under the same incubation conditions for 3 h with different concentrations (0.25 nM, 2.5 nM, 5 nM, 10 nM, 25 nM, 50 nM, and 75 nM) of the radiotracer under investigation in 1 ml fresh medium.
After 3 h, the cells were washed three times with 1 ml PBS, and the cells were finally lysed by adding 1 ml of 1 M NaOH and incubating them for 10 min at room temperature. All samples were measured with a gamma counter (Nuklear Medizintechnik Dresden Isomed 100, Dresden, Germany) and were decay-corrected. The equilibrium dissociation constant (Kd) and the maximum density of receptors (Bmax) were calculated by non-linear regression using GraphPad Prism 8.0.2 (GraphPad Software, San Diego, USA).

[2] = system: LNCaP cells; test: Cellular uptake (specific cell binding) in LNCaP cells; assay type: cell-based; details: n=3
Method: (§1) The cell binding determined in these experiments is the sum of specific and nonspecific cell binding. To determine the values for nonspecific cell binding and internalization, all experiments were additionally performed in the presence of 2-PMPA.
(§2) The plates were incubated for 1 h; after which, 0.75 pmol of the radiotracer to be examined was added to 1 ml of fresh medium. The cells were incubated for 30 min, 1, 2, 3, and 5 h. At each time point, the supernatant was removed and the cells washed with 1 ml of PBS. To dissociate the receptor-bound radioligand, the cells were washed twice with 1 ml of a 0.1 M glycine buffer solution at pH 2.8 for 5 min. The 0.1 M glycine–HCl buffer dissociated all the surface-bound complexes. The cells were then washed with 1 ml of PBS, and the internalized fraction was determined by solubilizing the cells with 1 ml of 1 M NaOH and incubating them for 10 min at room temperature. The radioactivity collected from the culture medium, 0.1 M glycine (surface-bound), and 1 M NaOH (internalized fraction) was measured in a gamma counter and decay-corrected. Cell binding was calculated from the surface-bound (0.1 M glycine) and the internalized fraction (1 M NaOH). The internalized fraction was expressed as a percentage of cell binding (internalization to cell-bound radioactivity ratio). All cell uptake experiments were run in triplicate.

[3] = system: LNCaP cells; test: Internalization in LNCaP cells; assay type: cell-based; details: n=3
Method: as §1, §2

[4] = system: LNCaP tumor xenografts; details: for Tumor/blood ratio / Tumor/kidneys ratio / Tumor/liver ratio / Tumor/muscle ratio: LNCaP xenograft mice; for Biodistribution Blood / Biodistribution Bone / Biodistribution Heart / Biodistribution Intestine / Biodistribution Kidneys / Biodistribution LNCAP-tumor / Biodistribution Liver / Biodistribution Lung / Biodistribution Muscle / Biodistribution Prostate / Biodistribution Spleen / Biodistribution Thyroid: i.v. 30 pmol, n=5
[5] = system: prostate cancer relapse; test: First-in-human PET/CT scan in a patient with biochemical recurrence of prostate cancer; details: 2 h p.i., 343 MBq
Method: The patient had given their written informed consent for PET imaging and the scientific evaluation of their data. All procedures were performed in accordance with the Institutional Review Board and the regulations of the regional authorities in Cologne. The kidney dose was estimated on the basis of two PET scans. The following assumptions were made for the estimation: Between time 0 (injection) and the first measuring point, the time-activity-curve follows a constant progression. All measuring points were integrated numerically using trapezoidal approximation. From the last measuring point to infinity, a mono-exponential function was fitted and integrated. As the effective half-life could not be accurately determined from two measurement points, the physical half-life of Zr-89 was used instead.

[6] = system: LNCaP tumor xenograft; test: Small-animal PET in mice bearing an LNCaP tumor xenograft, with and without blocking by 2-PMPA; details: 2-PMPA 23 mg/kg, n=3 per group

T1 sequence (Q04609 whole entry): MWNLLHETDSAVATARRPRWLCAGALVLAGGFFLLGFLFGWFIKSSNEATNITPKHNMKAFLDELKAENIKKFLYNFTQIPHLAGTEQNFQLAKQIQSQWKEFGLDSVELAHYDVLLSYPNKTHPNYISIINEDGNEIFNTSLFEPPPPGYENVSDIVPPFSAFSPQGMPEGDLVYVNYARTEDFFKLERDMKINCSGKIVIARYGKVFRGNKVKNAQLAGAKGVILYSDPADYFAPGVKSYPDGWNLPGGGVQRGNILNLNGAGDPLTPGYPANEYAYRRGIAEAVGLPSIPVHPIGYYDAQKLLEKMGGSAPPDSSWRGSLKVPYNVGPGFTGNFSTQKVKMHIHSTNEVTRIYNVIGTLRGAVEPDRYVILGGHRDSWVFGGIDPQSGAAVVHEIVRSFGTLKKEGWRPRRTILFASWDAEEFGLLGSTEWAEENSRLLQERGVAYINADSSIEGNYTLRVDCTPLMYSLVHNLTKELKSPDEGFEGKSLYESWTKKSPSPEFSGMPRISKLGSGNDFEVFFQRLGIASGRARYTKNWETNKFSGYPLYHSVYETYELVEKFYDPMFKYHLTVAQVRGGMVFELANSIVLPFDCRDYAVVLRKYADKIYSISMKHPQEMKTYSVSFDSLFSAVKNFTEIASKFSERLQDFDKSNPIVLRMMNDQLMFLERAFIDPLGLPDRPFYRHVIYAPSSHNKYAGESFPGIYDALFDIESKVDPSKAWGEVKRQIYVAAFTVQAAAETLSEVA

SMILES: O=C([O-])CN(CCN(CC(=O)[O-])Cc1cc(CCC(=O)NCCCCCC(=O)NCCCC[C@H](NC(=O)N[C@@H](CCC(=O)O)C(=O)O)C(=O)O)ccc1[O-])Cc1cc(CCC(=O)O)ccc1[O-].[68Ga+3].[OH3+] [[^68Ga]Ga-PSMA-11]
- Kd [1]: 5.15 ± 0.6 nM
- Bmax (maximum achievable concentration on 10^6 tumor cells) [1]: 1746 ± 53 fmol/10^6 cells
- Specific binding in LNCaP cells as percentage of total activity ([2]; 0.5 h): 27.7±0.7%
- Specific binding in LNCaP cells as percentage of total activity ([2]; 1 h): 35.3±3.1 %
- Specific binding in LNCaP cells as percentage of total activity ([2]; 2 h): 42.0±1.2 %
- Specific binding in LNCaP cells as percentage of total activity ([2]; 3 h): 46.3±2.1%
- Specific binding in LNCaP cells as percentage of total activity ([2]; 5 h): 48.3±1.2%
- Specific internalized activity as percentage of specific cell-bound activity ([3]; 0.5 h): 28.9±0.7%
- Specific internalized activity as percentage of specific cell-bound activity ([3]; 1 h): 39.7±2.0%
- Specific internalized activity as percentage of specific cell-bound activity ([3]; 2 h): 48.3±2.5%
- Specific internalized activity as percentage of specific cell-bound activity ([3]; 3 h): 50.5±3.4%
- Specific internalized activity as percentage of specific cell-bound activity ([3]; 5 h): 56.8±2.2 %
- Tumor/blood ratio ([4]; 2 h p.i.): 15 ± 3
- Tumor/kidneys ratio ([4]; 2 h p.i.): 0.09 ± 0.02
- Tumor/liver ratio ([4]; 2 h p.i.): 6.2 ± 1.0
- Tumor/muscle ratio ([4]; 2 h p.i.): 37 ± 8
- Biodistribution Blood ([4]; 2 h p.i.): 1.34 ± 0.20 %ID/g
- Biodistribution Bone ([4]; 2 h p.i.): 1.19 ± 0.31 %ID/g
- Biodistribution Heart ([4]; 2 h p.i.): 1.10 ± 0.36 %ID/g
- Biodistribution Intestine ([4]; 2 h p.i.): 1.50 ± 0.59 %ID/g
- Biodistribution Kidneys ([4]; 2 h p.i.): 231 ± 41 %ID/g
- Biodistribution LNCAP-tumor ([4]; 2 h p.i.): 19.4 ± 2.4 %ID/g
- Biodistribution Liver ([4]; 2 h p.i.): 3.17 ± 0.18 %ID/g
- Biodistribution Lung ([4]; 2 h p.i.): 3.27 ± 1.03 %ID/g
- Biodistribution Muscle ([4]; 2 h p.i.): 0.54 ± 0.15 %ID/g
- Biodistribution Prostate ([4]; 2 h p.i.): 4.09 ± 1.15 %ID/g
- Biodistribution Spleen ([4]; 2 h p.i.): 40.9 ± 9.3 %ID/g
- Biodistribution Thyroid ([4]; 2 h p.i.): 2.13 ± 0.27 %ID/g
- Tumor/kidneys ratio ([4]; 4 h p.i.): 0.10 ± 0.05
- Tumor/liver ratio ([4]; 4 h p.i.): 34.6 ± 6.6
- Biodistribution Blood ([4]; 4 h p.i.): 0.21 ± 0.03 %ID/g
- Biodistribution Bone ([4]; 4 h p.i.): 0.50 ± 0.19 %ID/g
- Biodistribution Heart ([4]; 4 h p.i.): 1.35 ± 0.70 %ID/g
- Biodistribution Intestine ([4]; 4 h p.i.): 0.65 ± 0.30 %ID/g
- Biodistribution Kidneys ([4]; 4 h p.i.): 226 ± 25 %ID/g
- Biodistribution LNCAP-tumor ([4]; 4 h p.i.): 23.2 ± 10.6 %ID/g
- Biodistribution Liver ([4]; 4 h p.i.): 0.65 ± 0.21 %ID/g
- Biodistribution Lung ([4]; 4 h p.i.): 1.23 ± 0.13 %ID/g
- Biodistribution Muscle ([4]; 4 h p.i.): 0.42 ± 0.11 %ID/g
- Biodistribution Prostate ([4]; 4 h p.i.): 1.67 ± 0.37 %ID/g
- Biodistribution Spleen ([4]; 4 h p.i.): 62.5 ± 21.5 %ID/g
- Biodistribution Thyroid ([4]; 4 h p.i.): 4.44 ± 2.9 %ID/g

SMILES: COc1nc([18F])ccc1C(=O)NCCCCC(NC(=O)NC(CCC(=O)O)C(=O)O)C(=O)O (stereo not shown) [[^18F]F-JK-PSMA-7]
- Kd [1]: 5.07 ± 0.45 nM
- Bmax (maximum achievable concentration on 10^6 tumor cells) [1]: 2702 ± 61 fmol/10^6 cells
- Specific binding in LNCaP cells as percentage of total activity ([2]; 0.5 h): 23.8±0.6 %
- Specific binding in LNCaP cells as percentage of total activity ([2]; 1 h): 32.6±0.4 %
- Specific binding in LNCaP cells as percentage of total activity ([2]; 2 h): 38.8±1.3 %
- Specific binding in LNCaP cells as percentage of total activity ([2]; 3 h): 45.2±1.9 %
- Specific binding in LNCaP cells as percentage of total activity ([2]; 5 h): 45.8±0.4 %
- Specific internalized activity as percentage of specific cell-bound activity ([3]; 0.5 h): 19.6±1.3 %
- Specific internalized activity as percentage of specific cell-bound activity ([3]; 1 h): 33.9±1.6 %
- Specific internalized activity as percentage of specific cell-bound activity ([3]; 2 h): 44.3±2.5%
- Specific internalized activity as percentage of specific cell-bound activity ([3]; 3 h): 46.0±2.2%
- Specific internalized activity as percentage of specific cell-bound activity ([3]; 5 h): 48.6±0.9 %
- SUVmax left prostate lobe [5]: 4.63
- SUVmax right prostate lobe [5]: 5.37
- Tumor/blood ratio ([4]; 2 h p.i.): 142 ± 24
- Tumor/kidneys ratio ([4]; 2 h p.i.): 0.74 ± 0.08
- Tumor/liver ratio ([4]; 2 h p.i.): 4.7 ± 1.2
- Tumor/muscle ratio ([4]; 2 h p.i.): 282 ± 71
- Biodistribution Blood ([4]; 2 h p.i.): 0.15 ± 0.04 %ID/g
- Biodistribution Bone ([4]; 2 h p.i.): 0.18 ± 0.03 %ID/g
- Biodistribution Heart ([4]; 2 h p.i.): 0.12 ± 0.02 %ID/g
- Biodistribution Intestine ([4]; 2 h p.i.): 0.89 ± 0.18 %ID/g
- Biodistribution Kidneys ([4]; 2 h p.i.): 27.2 ± 2.6 %ID/g
- Biodistribution LNCAP-tumor ([4]; 2 h p.i.): 20.2 ± 2.4 %ID/g
- Biodistribution Lung ([4]; 2 h p.i.): 0.18 ± 0.01 %ID/g
- Biodistribution Muscle ([4]; 2 h p.i.): 0.07 ± 0.02 %ID/g
- Biodistribution Prostate ([4]; 2 h p.i.): 0.22 ± 0.03 %ID/g
- Biodistribution Spleen ([4]; 2 h p.i.): 2.15 ± 0.45 %ID/g
- Biodistribution Thyroid ([4]; 2 h p.i.): 0.19 ± 0.02 %ID/g
- Tumor/liver ratio ([4]; 4 h p.i.): 5.7 ± 0.7
- Biodistribution Blood ([4]; 4 h p.i.): 0.12 ± 0.03 %ID/g
- Biodistribution Bone ([4]; 4 h p.i.): 0.20 ± 0.03 %ID/g
- Biodistribution Heart ([4]; 4 h p.i.): 0.10 ± 0.02 %ID/g
- Biodistribution Intestine ([4]; 4 h p.i.): 1.53 ± 0.31 %ID/g
- Biodistribution Kidneys ([4]; 4 h p.i.): 26.0 ± 3.5 %ID/g
- Biodistribution LNCAP-tumor ([4]; 4 h p.i.): 21.3 ± 1.5 %ID/g
- Biodistribution Liver ([4]; 4 h p.i.): 3.75 ± 0.50 %ID/g
- Biodistribution Lung ([4]; 4 h p.i.): 0.18 ± 0.04 %ID/g
- Biodistribution Muscle ([4]; 4 h p.i.): 0.19 ± 0.03 %ID/g
- Biodistribution Prostate ([4]; 4 h p.i.): 0.60 ± 0.16 %ID/g
- Biodistribution Spleen ([4]; 4 h p.i.): 1.57 ± 0.22 %ID/g
- Biodistribution Thyroid ([4]; 4 h p.i.): 0.20 ± 0.02 %ID/g

SMILES: CC(=O)N1CCCCCNC(=O)CCC(=O)N2CCCCCNC(=O)CCC(=O)N(CCCCCNC(=O)CCC(=O)NCC3CCC(C(=O)NC(Cc4ccc5ccccc5c4)C(=O)NCCCCC(NC(=O)NC(CCC(=O)O)C(=O)O)C(=O)O)CC3)[O][Zr+]([O]1)[O]2 (stereo not shown) [[^89Zr]Zr-PSMA-DFO, [^89Zr]Zr-N-sucDf-AMCHA-2Nal-EuK]
- Kd [1]: 4.97 ± 0.57 nM

SMILES: O=C(O)CCC(CP(=O)(O)O)C(=O)O (stereo not shown) [2-PMPA, 2-(phosphonomethyl)-pentanedioic acid]
- Effect of blocking on accumulation of [^89Zr]Zr-PSMA-DFO radioactivity in the liver ([6]; 1 h, 21 h and 48 h): significantly increased; also recorded: radioactivity accumulated in the liver
- Effect of blocking on accumulation of [^89Zr]Zr-PSMA-DFO radioactivity in the kidneys ([6]; significant after 1 h): significantly reduced
- Effect of blocking on tumor accumulation of [^89Zr]Zr-PSMA-DFO ([6]; significant after 1 h): strongly reduced; also recorded: markedly reduced
